Reference: US5246940A, “Substituted N-biphenylyl lactams” (Ortho Pharmaceutical Corporation, priority 1993, dated 1993)
Counter-ions that a name gives are not always drawn. Like-named read-outs stand apart in the source and are kept apart here.

Assays:
[1] = biological target: T1, angiotensin II-induced vasoconstriction (Oryctolagus cuniculus, UniProt P34976); test: Inhibition of Angiotensin II Dose-Response in Rabbit Thoracic Aorta; set-up: from tissue; host or cells: thoracic aorta rings of New Zealand white rabbits; species or system New Zealand white rabbits; details: for inhibition at 10 µM: read-out: % Inh @ 10^-5 M; for EC90: contraction, 95% C.L. in brackets
T1 sequence (P34976 1-359): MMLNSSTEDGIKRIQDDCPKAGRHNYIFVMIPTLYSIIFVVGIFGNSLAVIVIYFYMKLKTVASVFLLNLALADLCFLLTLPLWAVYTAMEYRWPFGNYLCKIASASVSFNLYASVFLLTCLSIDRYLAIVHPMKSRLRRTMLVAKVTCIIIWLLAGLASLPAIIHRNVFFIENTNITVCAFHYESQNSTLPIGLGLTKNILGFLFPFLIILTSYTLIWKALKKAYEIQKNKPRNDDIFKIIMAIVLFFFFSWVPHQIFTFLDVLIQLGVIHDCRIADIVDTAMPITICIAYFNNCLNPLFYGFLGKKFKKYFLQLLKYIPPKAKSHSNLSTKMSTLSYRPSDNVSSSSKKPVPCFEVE
Method: VII. Cellular and Biochemical pharmacology of DuP 753, an orally active antihypertensive agent. J. Pharmacol. Exp. Ther., 252, 726 (1990)]
Test compounds are diluted in dimethylsulfoxide vehicle such that a 50 μL addition to the tissue bath produces a final bath concentration of 1×10^-5 M compound in Krebs-bicarbonate buffer (baths contain 15 mL Krebs-bicarbonate buffer).
Procedure: 1.8 to 2.3 kg New Zealand white rabbits are sacrificed with an intravenous sodium pentobarbital overdose and the thoracic aorta gently dissected free from the aortic root to the level of the diaphragm, into ice cold Krebs bicarbonate buffer. The aorta is gently freed of clots and adventitia and cleanly cut into 5 mm segments. Each ring is suspended from a Gould isotonic force transducer in a tissue bath containing 15 mL oxygenated Krebs bicarbonate buffer regulated at 37° C. Initial tenison is adjusted to 4.0 g and equilibrated over three 20-minute wash periods with fresh Krebs-bicarbonate buffer to achieve a baseline tension of 3.0 g. […] […] […] In addition, since the test compounds are dissolved in DMSO, DMSO alone is tested in two rings as a vehicle control in each screening experiment.

Angiotensin Receptor [2] = test: Screening Potential Angiotensin Receptor Antagonists in Salt-Depleted Normotensive Rats (blood pressure after oral dosing); assay type: in vivo, Sprague-Dawley rats; details: for Antihypertensive Activity (p.o.): active @ dose: oral, salt-depleted normotensive rats, active = MAP decrease of 10 or more mmHg vs concurrent control
Text: Test Procedure for Screening Potenital Angiotensin Receptor Antagonists in Salt-Depleted Normotensive Rats
Purpose: This test is designed to detect hypotensive effects of a compound after oral dosing in normotensive animals made renin-dependent by salt depletion. [Wong, P. C., Price, W. A., Chiu, A. T., Duncia, J. V., Carini, D. J., Wexler, R. R., Johnson, A. L., and Timmermans, P. B. M. W. M.: Nonpeptide angiotensin II receptor antagonists. VIII. […] J. Pharmacol. Exp. Ther., 252,726 (1990)]
Solution Preparation: Oral 50 mg/kg furosemide doses are prepared from 10 mg/mL solutions of the intravenous pharmaceutical preparation (Lasix injection, Hoechst-Roussel Pharmaceutical). Test compound is uniformly suspended in 1% methylcellulose.
(§1) Method: Male 350-450 g Sprague-Dawley rats are implanted with teflon microcannulae via the middle caudal artery under 20 mg/kg intravenous brevital anesthesia and permitted a 4-7 day surgical recovery period. Throughout recovery and testing animals are individually housed unrestrained in standard rat metabolism cages and receive continuous 0.5 mL/hour intra-arterial 0.25 N saline infusion through a spring-shielded swivelling tether connected to an infusion/blood pressure recording system to maintain arterial cannula patency. Animals are maintained on Low Sodium (0.03%) Pruina Rat Chow #5881 throughout the study. After the recovery period animals are given oral 50 mg/kg furosemide (Lasix, Hoechst-Roussel Pharmaceutical) doses on two consecutive days to produce marked diuresis and plasma volume depletion that makes maintenance of normal blood pressure highly dependent on function of the renin-angiotensin-aldosteronesystem. Three hours after the second furosemide dose, rats are given test compound uniformly suspended in 1% methylcellulose (n=3/dose level) or 1 mL 1% methylcellulose vehicle (n=3) orally by gavage and blood pressure is continuously recorded for 24 h using a Buxco computerized data recording system. Compound-induced changes in blood pressure are compared to concurrent vehicle control blood pressures in order to detect drug effect.
Interpretation: Prior to salt depletion, normotensive rats typically show a plasma renin activity (PRA), measured by Radioimmuno Assay (RIA) of Angiotensin I (as ng Angiotensin I/mL plasma/hour) and yields a RIA of 0.7. After the salt-depletion protocol PRA values taken 3 hour after the furosemide dose have risen to about 7.4. […] PRA is increased by this DuP-753 treatment to about 41.4.
Compounds that decrease blood pressure 10 or more mmHg (MAP) compared to concurrent control after oral dosing are considered active in this test. Maximum possible response is about-35 mmHg. See results in Table 2.

[3] = biological target: T1, angiotensin II-induced vasoconstriction; test: Angiotensin II Antagonist Dose-Response in Rabbit Thoracic Aorta (Schild plot); set-up: from tissue; host or cells: thoracic aorta rings of New Zealand white rabbits; species or system New Zealand white rabbits; details: for Kb: read-out: pA2 (converted)
Text: Angiotensin II Antagonist Dose-Response in Rabbit Thoracic Aorta Purpose: […] [Chiu, […]., Price, W. A., Wong, […]., Duncia, […]., Yoo, S. E., Johnson, A. L., and […].: Nonpeptide angiotensin II receptor antagonists. VII. Cellular and Biochemical pharmacology of […], an orally active antihypertensive agent. J. Pharmacol. Exp. Ther., 252,726 (1990)]. Solution Preparation: […] For each test an aliquot is freshly thawed and serially diluted with Krebs bicarbonate buffer to provide stock solutions of angiotensin II in buffer for addition to the tissue baths. […] Procedure: 1.8 to 2.3 kg New Zealand white rabbits are sacrificed with an intravenous sodium pentobarbital overdose and the thoracic aorta gently dissected free from the aortic root to the level of the diaphragm, into ice cold Krebs bicarbonate buffer. The aorta is gently freed of clots and adventitia and cleanly cut into 5 mm segments. Each ring is suspended from a Gould isotonic force transducer in a tissue bath containing 15 mL oxygenated Krebs bicarbonate buffer regulated at 37° C. […] The test compound is then given to separate rings at different antagonist concentrations (n=2 rings/test concentration) in order to asses antagonist dose-response. The angiotensin II cumulative dose-response is then repeated in the presence of the test compound. Analysis: Angiotensin II vasoconstrictor tension in grams is expressed as a percent of maximal contraction for the before and after test compound angiotensin II dose-responses. […] See results in Table 2.

Angiotensin Receptor [4] = test: Screening Potential Angiotensin Receptor Antagonists in Salt-Depleted Normotensive Rats (blood pressure after oral dosing); assay type: in vivo, Sprague-Dawley rats
[5] = test system: plasma renin activity (PRA); test: Plasma renin activity by Radioimmuno Assay of Angiotensin I in salt-depleted rats; assay type: in vivo, Sprague-Dawley rats; details: salt-depleted animals; about 7.4 after salt depletion before treatment
Method: as §1, with “After the recovery period animals are given oral 50 mg/kg furosemide (Lasix, Hoechst-Roussel Pharmaceutical) doses on two consecutive days to produce marked diuresis and plasma volume depletion that makes maintenance of normal blood pressure highly dependent on function of the renin-angiotensin-aldosteronesystem.” left out, “Compound-induced changes in blood pressure are compared to concurrent vehicle control blood pressures in order to detect drug effect.” left out
Interpretation: Prior to salt depletion, normotensive rats typically show a plasma renin activity (PRA), measured by Radioimmuno Assay (RIA) of Angiotensin I (as ng Angiotensin I/mL plasma/hour) and yields a RIA of 0.7. […]

| inhibition at 10 µM [1] | Kb [3] | Compound | Antihypertensive Activity (p.o.): active @ dose (Angiotensin Receptor [2]) | further results |
| --- | --- | --- | --- | --- |
| 100% |  | CCOC(=O)C=C1C2C3CCCC(CC3)C2C(=O)N1Cc1ccc(-c2ccccc2-c2nnn[nH]2)cc1 (stereo not drawn) [ag, 3-Carbethoxymethyliden-2-[4-(2-tetrazolophenyl)benzyl]-4,7-endopropylen-1,3,4,5,6,7-hexahydro-1-oxoisoindole Dihydrate] | 30 mpk |  |
| 100% | 4.47 nM | CCOC(=O)C=C1C2C3C=CC(C3)C2C(=O)N1Cc1ccc(-c2ccccc2-c2nnn[nH]2)cc1 (stereo not drawn) [v, 3-Carbethoxymethyliden-2-[4-(2-tetrazolophenyl)benzyl]-4,7-endomethylen-1,3,4,7-tetrahydro-1-oxoisoindole Pyridinium Salt] |  |  |
| 100% | 14.1 nM | CCOC(=O)C=C1C2C3C=CC(CCC3)C2C(=O)N1Cc1ccc(-c2ccccc2-c2nnn[nH]2)cc1 (stereo not drawn) [ah, 3-Carbethoxymethyliden-2-[4-(2-tetrazolophenyl)benzyl]-4,7-endopropylen-1,3,4,7-tetrahydro-1-oxoisoindole Pyridinium Salt, 1.75 Hydrate] | > 30 mpk |  |
| 100% |  | CCOC(=O)C=C1N(Cc2ccc(-c3ccccc3-c3nnn[nH]3)cc2)C(=O)CC12CCCCC2 [ac, 5-Carbethoxymethyliden-4-spirocyclohexyl-1-[4-(2-tetrazolophenyl)benzyl]pyrrolidin-2-one Pyridinium Salt,1.2 Hydrate] | 30 mpk | pA2 ([3]; Schild plot vs angiotensin II, rabbit thoracic aorta rings): 7.93 |
| 3% |  | CCOC(=O)C=C1C2C3C=CC(CC3)C2C(=O)N1Cc1ccc(-c2ccccc2C#N)cc1 (stereo not drawn) [p, 3-Carbethoxymethyliden-2-[4-(2-cyanophenyl)benzyl]-4,7-endoethylen-1,3,4,7-tetrahydro-1-oxoisoindole] |  |  |
| 99% | 6.92 nM | CCOC(=O)C=C1C2C3C=CC(CC3)C2C(=O)N1Cc1ccc(-c2ccccc2-c2nnn[nH]2)cc1 (stereo not drawn) [u, 3-Carbethoxymethyliden-2-[4-(2-tetrazolophenyl)benzyl]-4,7-endoethylen-1,3,4,7-tetrahydro-1-oxoisoindole] | 30 mpk |  |

Continued, compound first:

| Compound | inhibition at 10 µM [1] | Kb [3] | Antihypertensive Activity (p.o.): active @ dose (Angiotensin Receptor [2]) | further results |
| --- | --- | --- | --- | --- |
| CCOC(=O)C=C1CC(C)(C)CC(=O)N1Cc1ccc(-c2ccccc2-c2nnn[nH]2)cc1 [s, 6-Carbethoxymethyliden-4,4-dimethyl-1-[4-(2-tetrazolophenyl)benzyl]piperidin-2-one Pyridinium salt] | 100% | 39.8 nM | 30 mpk |  |
| CCOC(=O)C=C1C2C3C=CC(C3)C2C(=O)N1Cc1ccc(-c2ccccc2C(=O)OC)cc1 (stereo not drawn) [m, 3-Carbethoxymethyliden-2-[4-(2-carbomethoxyphenyl)benzyl]-4,7-endomethylen-1,3,4,7-tetrahydro-1-oxoisoindole] | 0% |  |  |  |
| CCOC(=O)C=C1C2C3CCC(C3)C2C(=O)N1Cc1ccc(-c2ccccc2C(=O)OC)cc1 (stereo not drawn) [y, 3-Carbethoxymethyliden-2-[4-(2-carbomethoxyphenyl)benzyl]-4,7-endomethylen-1,3,4,5,6,7-hexahydro-1-oxoisoindole] | 0% |  |  |  |
| CCCCc1nc(Cl)c(CO)n1Cc1ccc(-c2ccccc2-c2nn[nH]n2)cc1 [DuP-753] |  |  |  | blood pressure response in normotensive rats that have not been salt-depleted (Angiotensin Receptor [4]): does not change; blood pressure decrease (mean arterial pressure, MAP) (Angiotensin Receptor [2]; salt-depleted animals, typical response): about 35 mmHg; plasma renin activity (PRA) after treatment [5]: about 41.4 ng Angiotensin I/mL plasma/hour |
| CCOC(=O)C=C1C2C3CCC(C3)C2C(=O)N1Cc1ccc(-c2ccccc2-c2nnn[nH]2)cc1 (stereo not drawn) [z, 3-Carbethoxymethyliden-2-[4-2-(tetrazolophenyl)benzyl]-4,7-endomethylen-1,3,4,5,6,7-hexahydro-1-oxoisoindole] | 100% | 1.05 nM | 30 mpk |  |
| angiotensin II [reference compound] |  |  |  | EC90 ([1]; read-out: Mean ED90 for angiotensin II after DMSO vehicle treatment, after DMSO vehicle): 5.88 nM; EC90 ([1]; read-out: Mean ED90 for angiotensin II before DMSO vehicle treatment, before DMSO vehicle): 4.44 nM |
| CCOC(=O)C=C1N(Cc2ccc(-c3ccccc3-c3nnn[nH]3)cc2)C(=O)CC12CCCC2 [af, 5-Carbethoxymethylidine-4-spirocyclopentyl-1-[4-(2-tetrazolophenyl)benzyl]pyrrolidin-5-one Pyridinium Salt, 1.4 Hydrate] | 100% | 3.63 nM | 30 mpk |  |
| CCOC(=O)C=C1N(Cc2ccc(-c3ccccc3-c3nnn[nH]3)cc2)C(=O)CC12CCCCCC2 [ad, 5-Carbethoxymethylidine-4-spirocycloheptyl-1-[4-(2-tetrazolophenyl)benzyl]pyrrolidin-2-one Pyridinium Salt, 1.3 Hydrate] | 100% | 4.37 nM | 30 mpk |  |
| CCOC(=O)C=C1CC2(CCCC2)CC(=O)N1Cc1ccc(-c2ccccc2-c2nnn[nH]2)cc1 [t, 6-Carbethoxymethyliden-4-spirocyclopentyl-1-[4-(2-tetrazolophenyl)benzyl]piperidin-2-one Pyridinium Salt] | 100% | 14.1 nM | 30 mpk |  |
| CCOC(=O)C=C1CC(C)(CC)CC(=O)N1Cc1ccc(-c2ccccc2-c2nnn[nH]2)cc1 (stereo not drawn) [ae, 6-Carbethoxymethyliden-4-ethyl-4-methyl-1-[4-(2-tetrazolophenyl)benzyl]piperidine-2-one Pyridinium Salt, 1.25 Hydrate] | 100% | 1.07 nM | 10 mpk |  |
